This passage reports IC50 results from ChEMBL document CHEMBL1134708, “Synthesis of analogues of the O-beta-D-ribofuranosyl nucleoside moiety of liposidomycins. Part 1: contribution of the amino group and the uracil moiety upon the inhibition of MraY” (Bioorg Med Chem Lett, 2001).

SMILES strings stand for the structures.

In test [1] the target is T1, Phospho-N-acetylmuramoyl-pentapeptide-transferase (Escherichia coli K-12, UniProt P0A6W3).
T1 sequence (P0A6W3 whole entry): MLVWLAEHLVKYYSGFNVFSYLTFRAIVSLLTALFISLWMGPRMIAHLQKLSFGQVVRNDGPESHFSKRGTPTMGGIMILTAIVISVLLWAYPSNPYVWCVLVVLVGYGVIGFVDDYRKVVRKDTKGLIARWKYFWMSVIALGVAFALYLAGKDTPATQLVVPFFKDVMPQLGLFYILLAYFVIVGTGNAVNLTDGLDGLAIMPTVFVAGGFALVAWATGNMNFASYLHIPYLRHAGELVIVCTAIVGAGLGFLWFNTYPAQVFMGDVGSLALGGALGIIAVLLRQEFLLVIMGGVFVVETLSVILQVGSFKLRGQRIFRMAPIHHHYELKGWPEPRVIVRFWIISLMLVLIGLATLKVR
Description: Inhibition of Escherichia coli Translocase (mraY).

Test [2] concerns the target T1, Phospho-N-acetylmuramoyl-pentapeptide-transferase. Description: Inhibition of Translocase (mraY) at >1000 uM (No activity).

Broadly, the IC50 is the midpoint of a concentration-inhibition curve. In test [1], `O=CNC[C@H]1O[C@@H](OC[C@H]2O[C@@H](n3ccc(=O)[nH]c3=O)[C@H](O)C2O)[C@H](O)C1O` (single isomer, unassigned) displayed an IC50 of more than 1000 µM.
In test [1], `CCNC[C@H]1O[C@@H](OC[C@H]2O[C@@H](n3ccc(=O)[nH]c3=O)[C@H](O)C2O)[C@H](O)C1O` (single isomer, unassigned) displayed an IC50 of 150 µM.
With `NC[C@H]1O[C@@H](OC[C@H]2O[C@@H](N3CCC(=O)NC3=O)[C@H](O)C2O)[C@H](O)C1O` (single isomer, unassigned), the IC50 result in test [2] is “Not Active”.
The same measure, in the same setting: the result for `Cn1c(=O)ccn([C@@H]2O[C@H](CO[C@@H]3O[C@H](CN)C(O)[C@H]3O)C(O)[C@H]2O)c1=O` (single isomer, unassigned) reads “Not Active”.
In turn, `N=C(N)NC[C@H]1O[C@@H](OC[C@H]2O[C@@H](n3ccc(=O)[nH]c3=O)[C@H](O)[C@@H]2O)[C@H](O)[C@@H]1O` came in with a half-inhibitory concentration (IC50) in test [1] of 25 µM.
Turning to `CCCCCCNC[C@H]1O[C@@H](OC[C@H]2O[C@@H](n3ccc(=O)[nH]c3=O)[C@H](O)C2O)[C@H](O)C1O` (single isomer, unassigned), the 50% inhibitory concentration (IC50) in test [1] amounted to 130 µM.
With `N=CNC[C@H]1O[C@@H](OC[C@H]2O[C@@H](n3ccc(=O)[nH]c3=O)[C@H](O)C2O)[C@H](O)C1O` (single isomer, unassigned), the IC50 in test [1] worked out at 30 µM.
Regarding `NC[C@H]1O[C@@H](OC(CO)[C@H]2O[C@@H](n3ccc(=O)[nH]c3=O)[C@H](O)[C@@H]2O)[C@H](O)[C@@H]1O` (stereo partly specified), the half-maximal inhibitory concentration (IC50) in test [1] was found to be 5 µM.
`CN(C)C[C@H]1O[C@@H](OC[C@H]2O[C@@H](n3ccc(=O)[nH]c3=O)[C@H](O)C2O)[C@H](O)C1O` (single isomer, unassigned): the concentration for half-maximal inhibition (IC50) in test [1] is more than 1000 µM.
`O=c1ccn([C@@H]2O[C@H](CO[C@@H]3O[C@H](CO)C(O)[C@H]3O)C(O)[C@H]2O)c(=O)[nH]1` (single isomer, unassigned) yielded an IC50 in test [1] of more than 1000 µM.
In the case of `CCCNC[C@H]1O[C@@H](OC[C@H]2O[C@@H](n3ccc(=O)[nH]c3=O)[C@H](O)C2O)[C@H](O)C1O` (single isomer, unassigned), in test [1], the midpoint of inhibition, the IC50, lay at 140 µM.
`NC[C@H]1O[C@@H](OC[C@H]2O[C@@H](n3ccc(=O)[nH]c3=O)[C@H](O)C2O)[C@H](O)C1O` (single isomer, unassigned): the IC50 in test [1] was 50 µM.
In turn, `CNC[C@H]1O[C@@H](OC[C@H]2O[C@@H](n3ccc(=O)[nH]c3=O)[C@H](O)C2O)[C@H](O)C1O` (single isomer, unassigned) registered a 50% inhibitory concentration (IC50) in test [1] of 45 µM.
Same read-out and setting: the result for `C[N+](C)(C)C[C@H]1O[C@@H](OC[C@H]2O[C@@H](n3ccc(=O)[nH]c3=O)[C@H](O)C2O)[C@H](O)C1O` (single isomer, unassigned) reads more than 1000 µM.
Regarding `CC(C)NC[C@H]1O[C@@H](OC[C@H]2O[C@@H](n3ccc(=O)[nH]c3=O)[C@H](O)C2O)[C@H](O)C1O` (single isomer, unassigned), the IC50 in test [1] was 180 µM.
Still for that read-out and setting: the result for `CC(=O)NC[C@H]1O[C@@H](OC[C@H]2O[C@@H](n3ccc(=O)[nH]c3=O)[C@H](O)[C@@H]2O)[C@H](O)[C@@H]1O` reads more than 1000 µM.
